Like-named read-outs stand apart in the source and are kept apart here. Square brackets hold non-standard residues; d marks the D form. Peptide text beside a SMILES is read from it. Oic = O=C(O)[C@@H]1C[C@@H]2CCCC[C@@H]2N1; 1Nal = N[C@@H](Cc1cccc2ccccc12)C(=O)O; 2Nal = N[C@@H](Cc1ccc2ccccc2c1)C(=O)O; d1Nal = N[C@H](Cc1cccc2ccccc12)C(=O)O; Tiq1c(1S) = O=C(O)[C@H]1NCCc2ccccc21; His(π-Me) = Cn1cncc1C[C@H](N)C(=O)O; Tic = O=C(O)[C@@H]1Cc2ccccc2CN1; dOrn = NCCC[C@@H](N)C(=O)O; Aze = O=C(O)[C@@H]1CCN1; Abu = CC[C@H](N)C(=O)O
Target: T1, CXCR7 (Homo sapiens, UniProt P25106)
T1 construct: host or cells: CHO (PathHunter CHO-CXCR7 β-arrestin cells)
Test: CXCR7 β-arrestin recruitment assay (PathHunter CHO-CXCR7, agonistic assay)
Format: cell-based
Method: Lyophilized peptides were weighed on a Microbalance (Mettler MX5) and dissolved in DMSO to a final concentration of 10 mM unless otherwise stated. Stock solutions were kept at +4° C., and protected from light.
2.2 CXCR7 β-Arrestin Recruitment Assay
The PathHunter CHO-CXCR7 (DiscoverX) assay was performed according to the manufacturer's protocol. In brief, CHO CXCR7 β-arrestin cells were seeded at a density of 5000 cells per well in 40 μl of F12 medium in a 96-half volume well black culture plate and incubated overnight at 37° C. in a humidified atmosphere with 5% CO2. The next day, serial dilutions of PEM compounds have been prepared in DMSO and subsequently diluted in HBSS buffer containing 0.1% BSA.
For agonistic assay, 10 μl of compound solution or a solution of stromal cell-derived factor-1 (SDF-1) as positive control was added to the cells with a final DMSO concentration of 1% (v/v). The plate was incubated for 90 min at 37° C. in 5% CO2 incubator with gentle shaking (300 rpm) before addition of 40 ul of detection reagent per well. Reaction was developed 90 min at room temperature in the dark with shaking, and chemiluminescence was measured with a Topcount (Perkin Elmer) luminescence counter.

[1] = CHO CXCR7 β-arrestin cells, agonistic assay, 90 min at 37° C., chemiluminescence, read-out: β-Arrestin EC50

T1 sequence (P25106 whole entry): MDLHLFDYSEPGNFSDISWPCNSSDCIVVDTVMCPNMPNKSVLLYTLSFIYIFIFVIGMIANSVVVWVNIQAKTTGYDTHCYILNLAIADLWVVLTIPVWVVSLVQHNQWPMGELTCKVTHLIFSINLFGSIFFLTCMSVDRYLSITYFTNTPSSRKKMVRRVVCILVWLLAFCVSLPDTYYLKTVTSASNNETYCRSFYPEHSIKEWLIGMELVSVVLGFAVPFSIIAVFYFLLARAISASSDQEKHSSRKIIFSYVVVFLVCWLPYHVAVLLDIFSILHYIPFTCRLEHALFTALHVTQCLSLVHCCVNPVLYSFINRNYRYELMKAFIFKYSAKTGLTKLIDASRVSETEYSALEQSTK

| Compound | EC50 [1] | EC50 |
| --- | --- | --- |
| N=C(N)NCCC[C@@H]1NC(=O)[C@H](Cc2c[nH]c3ccccc23)NC(=O)[C@@H](Cc2ccccc2)NC(=O)[C@H](Cc2c[nH]c3ccccc23)NC(=O)[C@@H]2c3ccccc3CCN2C(=O)[C@H]2CCCN2C1=O [Ex. 25, cyclo(-Trp-^DPhe-Trp-Arg-^DPro-Tiq-)] (cyclo(R[dP][Tiq1c(1S)]W[dF]W)) | 0.4 nM | – |
| N=C(N)NCCC[C@@H]1NC(=O)[C@H](Cc2c[nH]c3ccccc23)NC(=O)[C@@H](Cc2ccccc2)NC(=O)[C@H](Cc2ccccc2)NC(=O)[C@@H]2Cc3ccccc3CN2C(=O)[C@H]2CCCN2C1=O [Ex. 2, cyclo(-Phe-^DPhe-Trp-Arg-^DPro-Tic-)] (cyclo(F[dF]WR[dP][Tic])) | 22.5 ± 13.7 nM | – |
| CC[C@H](C)[C@@H]1NC(=O)[C@@H](CCCNC(=N)N)NC(=O)[C@H](Cc2c[nH]c3ccccc23)NC(=O)[C@@H]2CCN2C(=O)[C@H]2CCCN2C(=O)[C@H](CCCNC(=N)N)NC1=O [compound 50, cyclo(-Trp-^DArg-Ile-Arg-^DPro-Azt-)] (cyclo([Aze]W[dR]IR[dP])) | 47.7 ± 21.9 nM | – |
| N=C(N)NCCC[C@@H]1NC(=O)[C@H](Cc2c[nH]cn2)NC(=O)[C@@H](Cc2c[nH]c3ccccc23)NC(=O)[C@H](Cc2c[nH]cn2)NC(=O)[C@@H]2Cc3ccccc3CN2C(=O)[C@H]2CCCN2C1=O [compound 31, cyclo(-His-^DTrp-His-Arg-^DPro-Tic-)] (cyclo(HR[dP][Tic]H[dW])) | 226 ± 13.2 nM | – |
| N=C(N)NCCC[C@@H]1NC(=O)[C@@H](Cc2ccccc2)NC(=O)[C@H](Cc2c[nH]c3ccccc23)NC(=O)[C@@H]2Cc3ccccc3CN2C(=O)[C@H]2CCCN2C(=O)[C@H](CCCNC(=N)N)NC1=O [compound 19, cyclo(-Trp-^DPhe-Arg-Arg-^DPro-Tic-)] (cyclo(RR[dP][Tic]W[dF])) | 178 ± 102 nM | – |
| N=C(N)NCCC[C@@H]1NC(=O)[C@H](Cc2c[nH]c3ccccc23)NC(=O)[C@@H](Cc2c[nH]cn2)NC(=O)[C@H](Cc2c[nH]c3ccccc23)NC(=O)[C@@H]2CCN2C(=O)[C@H]2CCCN2C1=O [compound 48, cyclo(-Trp-^DHis-Trp-Arg-^DPro-Azt-)] (cyclo([Aze]W[dH]WR[dP])) | 342 ± 46.8 nM | – |
| N=C(N)NCCC[C@@H]1NC(=O)[C@H](Cc2c[nH]c3ccccc23)NC(=O)[C@@H](CCCNC(=N)N)NC(=O)[C@H](Cc2c[nH]c3ccccc23)NC(=O)[C@@H]2CCN2C(=O)[C@H]2CCCN2C1=O [compound 51, cyclo(-Trp-^DArg-Trp-Arg-^DPro-Azt-)] (cyclo([Aze]W[dR]WR[dP])) | 170 ± 22.5 nM | – |
| N=C(N)NCCC[C@@H]1NC(=O)[C@H](Cc2c[nH]c3ccccc23)NC(=O)[C@@H](Cc2ccccc2)NC(=O)[C@H](Cc2cccc3ccccc23)NC(=O)[C@@H]2Cc3ccccc3CN2C(=O)[C@H]2CCCN2C1=O [compound 7, cyclo(-1Nal-^DPhe-Trp-Arg-^DPro-Tic-)] (cyclo([1Nal][dF]WR[dP][Tic])) | 61.6 ± 1.6 nM | – |
| CC[C@@H]1NC(=O)[C@@H]2Cc3ccccc3CN2C(=O)[C@H]2CCCN2C(=O)[C@H](Cc2c[nH]c3ccccc23)NC(=O)[C@H](CCCNC(=N)N)NC(=O)[C@@H](CCCNC(=N)N)NC1=O [compound 30, cyclo(-Abu-^DArg-Arg-Trp-^DPro-Tic-)] (cyclo([Abu][dR]RW[dP][Tic])) | 97.5 ± 6.3 nM | – |
| N=C(N)NCCC[C@@H]1NC(=O)[C@H](Cc2c[nH]c3ccccc23)NC(=O)[C@@H](Cc2ccccc2)NC(=O)[C@H](Cc2c[nH]c3ccccc23)NC(=O)[C@@H]2C[C@@H]3CCCC[C@@H]3N2C(=O)[C@H]2CCCN2C1=O [Ex. 26, cyclo(-Trp-^DPhe-Trp-Arg-^DPro-Oic-)] (cyclo([Oic]W[dF]WR[dP])) | 0.8 ± 0.5 nM | – |
| N=C(N)NCCC[C@@H]1NC(=O)[C@H](Cc2c[nH]c3ccccc23)NC(=O)[C@@H](Cc2ccccc2)NC(=O)[C@H](Cc2c[nH]c3ccccc23)NC(=O)[C@@H]2Cc3ccccc3CN2C(=O)[C@H]2CCCN2C1=O [compound 9, cyclo(-Trp-^DPhe-Trp-Arg-^DPro-Tic-)] (cyclo(R[dP][Tic]W[dF]W)) | 4.8 ± 4.4 nM | – |
| N=C(N)NCCC[C@@H]1NC(=O)[C@H](Cc2ccc(O)cc2)NC(=O)[C@@H](Cc2ccccc2)NC(=O)[C@H](Cc2c[nH]c3ccccc23)NC(=O)[C@@H]2Cc3ccccc3CN2C(=O)[C@H]2CCCN2C1=O [compound 16, cyclo(-Trp-^DPhe-Tyr-Arg-^DPro-Tic-)] (cyclo(R[dP][Tic]W[dF]Y)) | 326 ± 99.8 nM | – |
| N=C(N)NCCC[C@@H]1NC(=O)[C@H](Cc2c[nH]c3ccccc23)NC(=O)[C@@H](CCCN)NC(=O)[C@H](Cc2c[nH]c3ccccc23)NC(=O)[C@@H]2Cc3ccccc3CN2C(=O)[C@H]2CCCN2C1=O [compound 14, cyclo(-Trp-^DOrn-Trp-Arg-^DPro-Tic-)] (cyclo(R[dP][Tic]W[dOrn]W)) | 111 ± 75.4 nM | – |
| CC[C@H](C)[C@@H]1NC(=O)[C@@H]2Cc3ccccc3CN2C(=O)[C@H]2CCCN2C(=O)[C@H](CCCNC(=N)N)NC(=O)[C@H](Cc2c[nH]c3ccccc23)NC(=O)[C@@H](Cc2c[nH]cn2)NC1=O [compound 32, cyclo(-Ile-^DHis-Trp-Arg-^DPro-Tic-)] (cyclo(I[dH]WR[dP][Tic])) | 70.8 ± 14.3 nM | – |
| N=C(N)NCCC[C@@H]1NC(=O)[C@H](Cc2c[nH]c3ccccc23)NC(=O)[C@@H](Cc2ccccc2)NC(=O)[C@H](Cc2ccc(O)cc2)NC(=O)[C@@H]2Cc3ccccc3CN2C(=O)[C@H]2CCCN2C1=O [compound 5, cyclo(-Tyr-^DPhe-Trp-Arg-^DPro-Tic-)] (cyclo(R[dP][Tic]Y[dF]W)) | – | 11.5 ± 9 nM |
| N=C(N)NCCC[C@@H]1NC(=O)[C@@H]2Cc3ccccc3CN2C(=O)[C@H]2CCCN2C(=O)[C@H](CCCNC(=N)N)NC(=O)[C@H](Cc2c[nH]cn2)NC(=O)[C@@H](Cc2c[nH]c3ccccc23)NC1=O [compound 35, cyclo(-Arg-^DTrp-His-Arg-^DPro-Tic-)] (cyclo(HR[dP][Tic]R[dW])) | 234 ± 132 nM | – |
| N=C(N)NCCC[C@@H]1NC(=O)[C@H](Cc2ccc3ccccc3c2)NC(=O)[C@@H](Cc2ccccc2)NC(=O)[C@H](Cc2c[nH]c3ccccc23)NC(=O)[C@@H]2Cc3ccccc3CN2C(=O)[C@H]2CCCN2C1=O [compound 17, cyclo(-Trp-^DPhe-2Nal-Arg-^DPro-Tic-)] (cyclo([2Nal]R[dP][Tic]W[dF])) | 16.9 ± 7.3 nM | – |
| N=C(N)NCCC[C@@H]1NC(=O)[C@H](Cc2c[nH]c3ccccc23)NC(=O)[C@@H](CCCNC(=N)N)NC(=O)[C@H](Cc2cccc3ccccc23)NC(=O)[C@@H]2CCN2C(=O)[C@H]2CCCN2C1=O [compound 44, cyclo(-1Nal-^DArg-Trp-Arg-^DPro-Azt-)] (cyclo([1Nal][dR]WR[dP][Aze])) | 146 ± 81.8 nM | – |
| O=C1N[C@@H](Cc2c[nH]c3ccccc23)C(=O)N2CCC[C@@H]2C(=O)N2Cc3ccccc3C[C@H]2C(=O)N[C@@H](Cc2c[nH]cn2)C(=O)N[C@H](Cc2cccc3ccccc23)C(=O)N[C@H]1Cc1c[nH]cn1 [compound 39, cyclo(-His-^D1Nal-His-Trp-^DPro-Tic-)] (cyclo(HW[dP][Tic]H[d1Nal])) | 269 ± 80.1 nM | – |
| NCCCC[C@@H]1NC(=O)[C@H](Cc2c[nH]c3ccccc23)NC(=O)[C@@H](Cc2ccccc2)NC(=O)[C@H](Cc2c[nH]c3ccccc23)NC(=O)[C@@H]2Cc3ccccc3CN2C(=O)[C@H]2CCCN2C1=O [compound 20, cyclo(-Trp-^DPhe-Trp-Lys-^DPro-Tic-)] (cyclo(K[dP][Tic]W[dF]W)) | 16.5 ± 8 nM | – |
| Cn1cncc1C[C@@H]1NC(=O)[C@@H]2Cc3ccccc3CN2C(=O)[C@H]2CCCN2C(=O)[C@H](CCCNC(=N)N)NC(=O)[C@H](Cc2c[nH]c3ccccc23)NC(=O)[C@@H](Cc2ccccc2)NC1=O [Ex. 4, cyclo(-His(Me)-^DPhe-Trp-Arg-^DPro-Tic-)] (cyclo([His(π-Me)][dF]WR[dP][Tic])) | 32.5 ± 3.9 nM | – |
| CC[C@H](C)[C@@H]1NC(=O)[C@@H](Cc2c[nH]cn2)NC(=O)[C@H](Cc2cccc3ccccc23)NC(=O)[C@@H]2Cc3ccccc3CN2C(=O)[C@H]2CCCN2C(=O)[C@H](CCCNC(=N)N)NC1=O [compound 29, cyclo(-1Nal-^DHis-Ile-Arg-^DPro-Tic-)] (cyclo([1Nal][dH]IR[dP][Tic])) | 347 ± 110 nM | – |
| CC[C@H](C)[C@@H]1NC(=O)[C@@H](Cc2ccccc2)NC(=O)[C@H](Cc2c[nH]c3ccccc23)NC(=O)[C@@H]2Cc3ccccc3CN2C(=O)[C@H]2CCCN2C(=O)[C@H](CCCNC(=N)N)NC1=O [compound 18, cyclo(-Trp-^DPhe-Ile-Arg-^DPro-Tic-)] (cyclo(IR[dP][Tic]W[dF])) | 148 ± 96.8 nM | – |
| N=C(N)NCCC[C@@H]1NC(=O)[C@@H]2Cc3ccccc3CN2C(=O)[C@H]2CCCN2C(=O)[C@H](CCCNC(=N)N)NC(=O)[C@H](Cc2c[nH]c3ccccc23)NC(=O)[C@@H](Cc2ccccc2)NC1=O [compound 6, cyclo(-Arg-^DPhe-Trp-Arg-^DPro-Tic-)] (cyclo(R[dF]WR[dP][Tic])) | 12.8 ± 4.5 nM | – |
| CC[C@H](C)[C@@H]1NC(=O)[C@@H](Cc2c[nH]cn2)NC(=O)[C@H](Cc2cccc3ccccc23)NC(=O)[C@@H]2CCN2C(=O)[C@H]2CCCN2C(=O)[C@H](CCCNC(=N)N)NC1=O [Ex. 42, cyclo(-1Nal-^DHis-Ile-Arg-^DPro-Azt-)] (cyclo([1Nal][dH]IR[dP][Aze])) | 85.7 ± 76.6 nM | – |
| N=C(N)NCCC[C@@H]1NC(=O)[C@H](Cc2c[nH]c3ccccc23)NC(=O)[C@@H](Cc2c[nH]c3ccccc23)NC(=O)[C@H](Cc2c[nH]c3ccccc23)NC(=O)[C@@H]2Cc3ccccc3CN2C(=O)[C@H]2CCCN2C1=O [Ex. 10, cyclo(-Trp-^DTrp-Trp-Arg-^DPro-Tic-)] (cyclo(R[dP][Tic]W[dW]W)) | 64.9 ± 113 nM | – |
